Data reported in PubChem BioAssay AID256 (DTP/NCI, 2004).
Where “and” joins values, the source holds several entries; their conditions need not be identical. Equal values may be shown once. Toxic doses and inconclusive results are not listed. How the source made its calls: active means survival T/C of 150% or more; inactive means T/C below 125% in these data.

System: CD2F1 mice, L1210 leukemia ip, survival T/C
Test: NCI In Vivo Anticancer Drug Screen. Data for tumor model L1210 Leukemia (intraperitoneal) in CD2F1 (CDF1) mice
Settings: higher = longer survival
Outline: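 Mice carrying a transplanted tumor received test compound or vehicle alone. The value is the measurement in the treated group divided by that in the vehicle-treated control group.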

[1] = endpoint: mean survival time, dose: 100.0 mg/kg/injection, schedule: Q04DX003 (ip), vehicle: saline
[2] = endpoint: mean survival time, dose: 100.0 mg/kg/injection, schedule: Q04DX003 (ip), vehicle: Klucel (hydroxypropylcellulose) (HPC)
[3] = endpoint: mean survival time, dose: 200.0 mg/kg/injection, schedule: Q04DX003 (ip), vehicle: Klucel (hydroxypropylcellulose) (HPC)
[4] = endpoint: mean survival time, dose: 400.0 mg/kg/injection, schedule: Q04DX003 (ip), vehicle: Klucel (hydroxypropylcellulose) (HPC)
[5] = endpoint: mean survival time, dose: 50.0 mg/kg/injection, schedule: Q01DX009 (ip), vehicle: other
[6] = endpoint: mean survival time, dose: 100.0 mg/kg/injection, schedule: Q01DX009 (ip), vehicle: other
[7] = endpoint: mean survival time, dose: 200.0 mg/kg/injection, schedule: Q01DX009 (ip), vehicle: other
[8] = endpoint: mean survival time, dose: 100.0 mg/kg/injection, schedule: Q01DX001 (ip), vehicle: saline with Tween-80
[9] = endpoint: mean survival time, dose: 200.0 mg/kg/injection, schedule: Q01DX001 (ip), vehicle: saline with Tween-80
[10] = endpoint: mean survival time, dose: 400.0 mg/kg/injection, schedule: Q01DX001 (ip), vehicle: saline with Tween-80
[11] = endpoint: mean survival time, dose: 100.0 mg/kg/injection, schedule: Q01DX009 (ip), vehicle: saline with Tween-80
[12] = endpoint: mean survival time, dose: 200.0 mg/kg/injection, schedule: Q01DX009 (ip), vehicle: saline with Tween-80
[13] = endpoint: mean survival time, dose: 100.0 mg/kg/injection, schedule: Q04DX003 (ip), vehicle: saline with Tween-80
[14] = endpoint: mean survival time, dose: 200.0 mg/kg/injection, schedule: Q04DX003 (ip), vehicle: saline with Tween-80
[15] = endpoint: mean survival time, dose: 400.0 mg/kg/injection, schedule: Q01DX009 (ip), vehicle: saline with Tween-80
[16] = endpoint: mean survival time, dose: 400.0 mg/kg/injection, schedule: Q04DX003 (ip), vehicle: saline with Tween-80

Measured: T/C

[NH-]C(CO)C(=O)O.[NH-]C(CO)C(=O)O.[Pd+2] (configuration not stated)
inactive: endpoint: mean survival time, dose: 3.13 mg/kg/injection, schedule: Q04DX003 (ip), vehicle: distilled water + Tween-80 104 % of control | endpoint: mean survival time, dose: 3.13 mg/kg/injection, schedule: Q04DX003 (ip), vehicle: saline 114 % of control | endpoint: mean survival time, dose: 3.13 mg/kg/injection, schedule: Q04DX003 (ip), vehicle: water 95 % of control | endpoint: mean survival time, dose: 6.25 mg/kg/injection, schedule: Q04DX003 (ip), vehicle: distilled water + Tween-80 96 % of control | endpoint: mean survival time, dose: 6.25 mg/kg/injection, schedule: Q04DX003 (ip), vehicle: saline 94 % of control | endpoint: mean survival time, dose: 6.25 mg/kg/injection, schedule: Q04DX003 (ip), vehicle: water 95 % of control | endpoint: mean survival time, dose: 12.5 mg/kg/injection, schedule: Q04DX003 (ip), vehicle: distilled water + Tween-80 98 % of control | endpoint: mean survival time, dose: 12.5 mg/kg/injection, schedule: Q04DX003 (ip), vehicle: saline 102 % of control | endpoint: mean survival time, dose: 12.5 mg/kg/injection, schedule: Q04DX003 (ip), vehicle: water 97 % of control | endpoint: mean survival time, dose: 25.0 mg/kg/injection, schedule: Q04DX003 (ip), vehicle: distilled water + Tween-80 95 % of control | endpoint: mean survival time, dose: 25.0 mg/kg/injection, schedule: Q04DX003 (ip), vehicle: saline 103 % of control | endpoint: mean survival time, dose: 25.0 mg/kg/injection, schedule: Q04DX003 (ip), vehicle: water 96 % of control | endpoint: mean survival time, dose: 50.0 mg/kg/injection, schedule: Q04DX003 (ip), vehicle: distilled water + Tween-80 98 % of control | endpoint: mean survival time, dose: 50.0 mg/kg/injection, schedule: Q04DX003 (ip), vehicle: saline 107 % of control | endpoint: mean survival time, dose: 50.0 mg/kg/injection, schedule: Q04DX003 (ip), vehicle: water 105 % of control | endpoint: mean survival time, dose: 100.0 mg/kg/injection, schedule: Q04DX003 (ip), vehicle: distilled water + Tween-80 102 % of control | [1] 106 % of control | endpoint: mean survival time, dose: 100.0 mg/kg/injection, schedule: Q04DX003 (ip), vehicle: water 91 % of control

CC1CCc2c(nc(C#N)c(=N)n2O)C1 (configuration not stated)
inactive: [2] 102 % of control | [3] 106 % of control | [4] 98 % of control

CC(C)([NH-])C[NH-].[Cl][Pt+2][Cl]
inactive: endpoint: median survival time, dose: 10.0 mg/kg/injection, schedule: Q04DX003 (ip), vehicle: saline with Tween-80 98 % of control | endpoint: median survival time, dose: 20.0 mg/kg/injection, schedule: Q04DX003 (ip), vehicle: saline with Tween-80 95 % of control | endpoint: median survival time, dose: 40.0 mg/kg/injection, schedule: Q04DX003 (ip), vehicle: saline with Tween-80 102 % of control | endpoint: median survival time, dose: 80.0 mg/kg/injection, schedule: Q04DX003 (ip), vehicle: saline with Tween-80 103 % of control and 112 % of control | endpoint: median survival time, dose: 160.0 mg/kg/injection, schedule: Q04DX003 (ip), vehicle: saline with Tween-80 117 % of control

Nc1ccccc1-c1nc2ccncc2[nH]1
inactive: endpoint: mean survival time, dose: 75.0 mg/kg/injection, schedule: Q01DX001 (ip), vehicle: saline 100 % of control | endpoint: mean survival time, dose: 150.0 mg/kg/injection, schedule: Q01DX001 (ip), vehicle: saline 98 % of control

C[Si](C)(C)C1([Si](C)(C)C)SCCCS1
inactive: [5] 105 % of control | [6] 105 % of control | [7] 102 % of control

O=C1NC(=O)C([N+](=O)[O-])=C(O)C1=O
inactive: endpoint: mean survival time, dose: 50.0 mg/kg/injection, schedule: Q01DX009 (ip), vehicle: saline 102 % of control | endpoint: mean survival time, dose: 100.0 mg/kg/injection, schedule: Q01DX009 (ip), vehicle: saline 93 % of control | endpoint: mean survival time, dose: 200.0 mg/kg/injection, schedule: Q01DX009 (ip), vehicle: saline 90 % of control

C=CC(NC(=O)CN)C(=O)O (configuration not stated)
inactive: [8] 115 % of control | endpoint: mean survival time, dose: 100.0 mg/kg/injection, schedule: Q04DX002 (ip), vehicle: saline 107 % of control | [9] 105 % of control | endpoint: mean survival time, dose: 200.0 mg/kg/injection, schedule: Q04DX002 (ip), vehicle: saline 93 % of control | [10] 114 % of control | endpoint: mean survival time, dose: 400.0 mg/kg/injection, schedule: Q04DX002 (ip), vehicle: saline 110 % of control

Nc1nc(-c2cc(Br)ccc2N=NN2CCCC2)nc2ccc(Br)cc12
inactive: endpoint: mean survival time, dose: 100.0 mg/kg/injection, schedule: Q04DX002 (ip), vehicle: Klucel (hydroxypropylcellulose) (HPC) 95 % of control | endpoint: mean survival time, dose: 200.0 mg/kg/injection, schedule: Q04DX002 (ip), vehicle: Klucel (hydroxypropylcellulose) (HPC) 113 % of control | endpoint: mean survival time, dose: 400.0 mg/kg/injection, schedule: Q04DX002 (ip), vehicle: Klucel (hydroxypropylcellulose) (HPC) 98 % of control

CCCC/C=C\C(=O)O
inactive: endpoint: mean survival time, dose: 50.0 mg/kg/injection, schedule: Q01DX009 (ip), vehicle: saline with Tween-80 102 % of control | [11] 102 % of control | [12] 98 % of control

Cc1cn2c(nc1=O)OC1C(O)C(CCl)OC12 (configuration not stated)
inactive: endpoint: median survival time, dose: 12.5 mg/kg/injection, schedule: Q01DX005 (ip), vehicle: saline with Tween-80 103 % of control | endpoint: median survival time, dose: 25.0 mg/kg/injection, schedule: Q01DX005 (ip), vehicle: saline with Tween-80 96 % of control | endpoint: median survival time, dose: 50.0 mg/kg/injection, schedule: Q01DX005 (ip), vehicle: saline with Tween-80 103 % of control | endpoint: median survival time, dose: 100.0 mg/kg/injection, schedule: Q01DX005 (ip), vehicle: saline with Tween-80 95 % of control | endpoint: median survival time, dose: 200.0 mg/kg/injection, schedule: Q01DX005 (ip), vehicle: saline with Tween-80 94 % of control

O=[N+]([O-])C=C(S)S
inactive: endpoint: mean survival time, dose: 25.0 mg/kg/injection, schedule: Q01DX009 (ip), vehicle: Klucel (hydroxypropylcellulose) (HPC) 111 % of control | endpoint: mean survival time, dose: 50.0 mg/kg/injection, schedule: Q01DX009 (ip), vehicle: Klucel (hydroxypropylcellulose) (HPC) 98 % of control | endpoint: mean survival time, dose: 100.0 mg/kg/injection, schedule: Q01DX009 (ip), vehicle: Klucel (hydroxypropylcellulose) (HPC) 93 % of control | endpoint: mean survival time, dose: 200.0 mg/kg/injection, schedule: Q01DX009 (ip), vehicle: Klucel (hydroxypropylcellulose) (HPC) 90 % of control

COc1ccc(N=c2ssc(SC)c2-c2ccccc2)cc1
inactive: [8] 102 % of control | [11] 103 % of control | [13] 101 % of control | [9] 100 % of control | [12] 102 % of control | [14] 102 % of control | [10] 102 % of control | [15] 103 % of control | [16] 98 % of control

CC1CCC(C(C)C2C(O)CC3C4CC=C5CC(O)CCC5(C)C4CCC32C)NC1 (configuration not stated)
inactive: endpoint: mean survival time, dose: 50.0 mg/kg/injection, schedule: Q04DX003 (ip), vehicle: saline with Tween-80 93 % of control | [13] 90 % of control and 96 % of control | [14] 87 % of control and 98 % of control

Oc1ccc(C/C=C/c2ccccc2)cc1
inactive: [13] 102 % of control | [14] 100 % of control | [16] 102 % of control

CC(=O)SCCNCC(C)(C)S
inactive: [1] 98 % of control | endpoint: mean survival time, dose: 200.0 mg/kg/injection, schedule: Q04DX003 (ip), vehicle: saline 98 % of control | endpoint: mean survival time, dose: 400.0 mg/kg/injection, schedule: Q04DX003 (ip), vehicle: saline 95 % of control

O=C(Nc1ccc(N(CCCl)CCCl)cc1)c1ccccc1
inactive: [2] 96 % of control | [3] 101 % of control | [4] 109 % of control

CC(=O)NC(Cc1ccc(N(CCCl)CCCl)cc1)C(=O)O (configuration not stated)
inactive: endpoint: mean survival time, dose: 3.12 mg/kg/injection, schedule: Q01DX009 (ip), vehicle: saline 97 % of control | endpoint: mean survival time, dose: 6.25 mg/kg/injection, schedule: Q01DX009 (ip), vehicle: saline 105 % of control | endpoint: mean survival time, dose: 12.5 mg/kg/injection, schedule: Q01DX009 (ip), vehicle: saline 118 % of control

O=C(N/N=C/c1cc2c(cc1[N+](=O)[O-])OCO2)c1ccccc1
inactive: endpoint: mean survival time, dose: 12.5 mg/kg/injection, schedule: Q01DX009 (ip), vehicle: other 100 % of control | endpoint: mean survival time, dose: 25.0 mg/kg/injection, schedule: Q01DX009 (ip), vehicle: other 104 % of control | [5] 94 % of control | [6] 96 % of control | [7] 94 % of control

NC(=O)C1=C(N)CCC1
inactive: [11] 104 % of control | [12] 104 % of control | [15] 106 % of control
